# Reference: patent US20240252688A1, “COMPOSITIONS AND METHODS FOR ENHANCED PROTEIN PRODUCTION” (HDT Bio Corp., priority 2021, published 2024)
# How the values were obtained:
# BALB/c mice = assay: Systemic (IV) compounds with IM NP-1/repRNA-ZIKV-117: serum ZIKV-117; format: in vivo; settings: for ZIKV-117 expression compared to no compound group: compound IV (Dinaciclib 5 mg/kg, CDKI-73 5 mg/kg, AZD4573 1 mg/kg), 10 μg repRNA-ZIKV-117 IM, days 3-28
# Description: The purpose of the experiment was to evaluate the effect of systemically administered compound inhibitors on protein expression.
# A molar ratio of nitrogen to phosphate (N:P) for each of the formulation was adjusted. […] Each compound was formulated as an aqueous solution or suspension following instructions from the vendor (MedChemExpress). At the same time as systemic compound treatment, mice were given 10 μg repRNA-encoding ZIKV-117 mAb complexed to nanoparticles by IM injection in the hind leg. Mice were bled on days 3, 5, 7, 10, 14, 21 and 28 after administration of NP-1/repRNA-ZIKV-117, and assayed for ZIKV-117 levels in serum. The positive control group received an IFNAR-1 blocking monoclonal antibody (MAR1-5A3) by intraperitoneal (IP) injection one day before administration of NP-1/repRNA-ZIKV-117.
# IFIT2 [1] = assay: NP-35 co-transfection: IFIT2 induction; format: cell-based, human; settings: NP-35-formulated compound, A549-Dual cells
# C57BL/6 mice = assay: IM injection of repRNA-SEAP with nanoparticle-encapsulated inhibitors: serum SEAP; format: in vivo; settings: 500 μM dose level versus equivalent no compound group, days 3-28
# Description: The ten candidate compounds were formulated in NP-1 nanoparticle emulsion to evaluate their effect on expression when co-delivered with repRNA. All compounds were readily soluble in non-polar solvents which enabled dissolution in the lipophilic squalene oil phase of NP-1. A probe sonication process was adapted to formulate candidate compounds in 1 mL batches of nanoparticle emulsions. The z-average nanoparticle diameter was measured by dynamic light scattering (DLS) and ranged from 110-130 nm. Activity of compounds formulated in nanoparticle emulsions was tested both in vitro (FIG. 11A). Cells were transfected with 20 ng repRNA per well in the presence of IFN and delivered with empty nanoparticles (no inhibitor) or nanoparticle encapsulating a compound inhibitor delivered at a calculated 0.5 μM per well. […] C57BL/6 female mice (6-8 weeks old; n=3/group) were injected by IM route with 10 μg repRNA-SEAP complexed with empty nanoparticles (no compound) or nanoparticles encapsulating a small molecule inhibitor at 500 μM. The positive control group received an IFNAR-1 blocking monoclonal antibody (MAR1-5A3) by intraperitoneal (IP) injection one day before IM injection of NP-1/repRNA-SEAP. […]
# [2] = biological target: mouse IFN alpha/beta receptor (IFNAR-1) (mouse) (UniProt P33896); assay: cell-based or functional assay
# mouse IFN alpha/beta receptor (IFNAR-1) (mouse), sequence (P33896 27-590 limits assumed): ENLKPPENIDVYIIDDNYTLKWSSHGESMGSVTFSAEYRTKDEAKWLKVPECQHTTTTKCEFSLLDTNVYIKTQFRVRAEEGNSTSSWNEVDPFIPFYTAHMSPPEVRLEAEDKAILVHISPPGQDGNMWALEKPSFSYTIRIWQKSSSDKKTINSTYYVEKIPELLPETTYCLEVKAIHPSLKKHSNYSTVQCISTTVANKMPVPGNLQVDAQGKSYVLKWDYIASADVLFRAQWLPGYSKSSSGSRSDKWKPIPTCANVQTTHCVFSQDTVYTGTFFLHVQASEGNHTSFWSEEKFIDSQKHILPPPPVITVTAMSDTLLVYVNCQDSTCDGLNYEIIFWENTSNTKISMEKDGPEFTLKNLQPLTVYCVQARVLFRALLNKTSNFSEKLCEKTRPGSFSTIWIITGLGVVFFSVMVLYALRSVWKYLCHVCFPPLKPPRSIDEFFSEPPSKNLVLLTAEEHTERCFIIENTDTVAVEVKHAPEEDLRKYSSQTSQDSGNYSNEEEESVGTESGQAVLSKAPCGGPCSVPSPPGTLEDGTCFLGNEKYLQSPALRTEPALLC
# NF-κB [3] = assay: NP-35 co-transfection: NF-κB induction; format: cell-based, human; settings: highest concentrations of NP-35-formulated compound
# Description: The objective of this experiment was to evaluate co-transfection of LNP (e.g., NP-35) with lead small molecule inhibitor compounds for enhancing protein expression from repRNA in transfected cells. […] LNP was formulated according to NP-35 formulation. Additionally, nanoparticles were also formulated according to […] formulation. About 5×10^4 A549-Dual cells were incubated at 37° C. with 5% CO2 for 18-24 hours with the compound at a concentration ranging from 1 μg to 0.06 ng. The cells were then treated with repRNA-nLuc, IFN, and nanoparticles (NP-35 or NP-30). The treated cells were incubated at 37° C. with 5% CO2 for 18-24 hours. nLuc expression was measured by Nano-GLO assay and plotted against the concentration of repRNA-nLuc that was used for the transfection (FIG. 14A-14H).
# A549-Dual cells [4] = assay: Single-point kinase inhibitor library screen: nLuc expression from NP-1+mRNA-nLuc in IFN-treated cells; format: cell-based, human; settings: Homo sapiens, compound 50 μM pre-treatment, NP-1+mRNA 20 ng/well + IFN, read-out: fold nLuc over RNA + IFN
# Description: (§1) The cells produce secreted embryonic alkaline phosphatase (SEAP), under the control of the interferon beta […] minimal promoter fused to five NF-κB binding sites. The cells also secrete lucia luciferase under the control of IFIT2 promoter.
# To measure protein expression from mRNA, which is the primary readout for compound down selection, mRNA encoding a secreted version of nanoluciferase (mRNA-nLuc) was used. Protein expression was measured via a luminometer using standard techniques.
# As additional criterion, expression in compound treated cells was compared relative to mRNA-transfected cells without IFN (“RNA only”) (data not shown).
# A library of small molecule kinase inhibitors was screened for the ability to enhance expression of mRNA-encoded genes when co-delivered with mRNA.
# NF-κB [5] = assay: Single-point screen: NFκB activation (SEAP reporter); format: cell-based, human; settings: Homo sapiens, 24 h; A549-Dual cells, compound 50 μM pre-treatment, NP-1+mRNA 20 ng/well + IFN; read-out: fold NFkB over IFN
# Text: as §1
# A549-Dual cells [6] = assay: Single-point screen: cell viability by CellTiter-Glo; settings: A549-Dual cells incubated overnight with compound at 50 μM, then NP-1+mRNA 20 ng/well + IFN 1:50
# Description: Finally, cell lysates were assayed with the CellTiter-GLO® assay (Promega) to obtain a luminescent-based measure of cell viability. In summary, the readouts from the high throughput screen included the primary measure of nLuc protein expression and three secondary readouts: IFIT, NF-κB and cell viability.
# For each assay, A549-dual cells were plated at a seeding density of about 5×10^4 cells per well. Cells were incubated overnight with compounds at 50 microMolar (μM) in 1% v/v dimethyl sulfoxide (DMSO). For control wells, 1% DMSO was added to each well. After about 24 hours, the culture medium was removed, and cells were transfected with NP-1+mRNA at 20 ng/mRNA/well in Opti-MEM® media (Thermofisher). Interferon (IFN) was diluted to 1:50 in all test wells except for the RNA only wells and media only wells. Anti-IFN was diluted 1:1000 in “RNA+anti-IFN+IFN” wells. Cells were incubated for 4 hours, and culture medium was added to the Opti-MEM® medium. After 24 hours, assay supernatants were collected and analyzed for nLuc expression, IFIT2 (qLuc), and NFκB (qBLUE-SEAP™, InvivoGen) activation. Cells were then lysed, and cell viability was determined by CellTiter-Glo® (Promega) assay.
# IFIT2 [7] = assay: Single-point screen: IFIT2 activation (Lucia luciferase, QUANTI-Luc); format: cell-based, human; settings: Homo sapiens, 24 h; A549-Dual cells, compound 50 μM pre-treatment, NP-1+mRNA 20 ng/well + IFN; read-out: fold IFIT over IFN
# Text: as §1
# A549-Dual cells [8] = assay: NP-35 co-encapsulating repRNA-nLuc and Dinaciclib: nLuc expression; format: cell-based, human; settings: 0.5 mM Dinaciclib co-encapsulated, A549-Dual cells + IFN
# Description: Briefly, A549-Dual cells were incubated at 37° C. with 5% CO2 for 18-24 hours. […] About 5×10^4 cells were transfected with the formulation at different concentrations in the presence of IFN. The transfected cells were incubated at 37° C. with 5% CO2 for 18-24 hours. nLuc expression was measured by Nano-GLO assay and plotted against the concentration of repRNA-nLuc that was used for the transfection (FIG. 15).
compound,measurement,setting,value
"CC(=O)N[C@@H]1CCC[C@H](C(=O)Nc2cc(-c3cnn4c3CC(C)(C)C4)c(Cl)cn2)C1 [AZD4573, (1S,3R)-3-acetamido-N-[5-chloro-4-(5,5-dimethyl-4,6-dihydropyrrolo[1,2-b]pyrazol-3-yl)pyridin-2-yl]cyclohexane-1-carboxamide]",ZIKV-117 expression compared to no compound group,BALB/c mice,higher total expression than no compound group but not statistically significant
same,IFIT2 induction,IFIT2 [1],significant dose-dependent reduction in IFIT2 induction
same,"total protein (SEAP) expression, AUC of expression kinetics",C57BL/6 mice,significant increase in total protein expression
IFNAR-1 blocking monoclonal antibody (MAR1-5A3),SEAP expression in serum of C57BL/6 mice on day seven after IM injection of NP-1/repRNA-SEAP,[2],10 fold
"Nc1nc(N[C@H]2C[C@@H]3CC[C@H]2C3)sc1C(=O)c1ccccc1[N+](=O)[O-] [MC180295, [4-amino-2-[[(1S,2S,4R)-2-bicyclo[2.2.1]heptanyl]amino]-1,3-thiazol-5-yl]-(2-nitrophenyl)methanone]",IFN-beta mediated NF-κB induction relative to cells transfected with NP-35,NF-κB [3],slight increase in IFN-beta mediated NF-κB induction
"CC(C)n1cnc2c(NCc3nc4c(F)c(F)ccc4[nH]3)nc(N3CCCC[C@H]3CCO)nc21 [CDK12-IN-3, 2-[(2S)-1-[6-[(4,5-difluoro-1H-benzimidazol-2-yl)methylamino]-9-propan-2-ylpurin-2-yl]piperidin-2-yl]ethanol]",IFIT2 induction,IFIT2 [1],significant dose-dependent reduction in IFIT2 induction
"CC(C)c1c2cc(-c3ccnc(NC4CCC(NC5CCOCC5)CC4)n3)ccc2nn1C (centres unmarked) [LY2857785, 4-N-[4-(2-methyl-3-propan-2-ylindazol-5-yl)pyrimidin-2-yl]-1-N-(oxan-4-yl)cyclohexane-1,4-diamine]",IFN-beta mediated NF-κB induction relative to cells transfected with NP-35,NF-κB [3],slight increase in IFN-beta mediated NF-κB induction
"CNc1nc(C)c(-c2nc(Nc3cccc(S(N)(=O)=O)c3)ncc2F)s1 [CDKI-73, 3-[[5-fluoro-4-[4-methyl-2-(methylamino)-1,3-thiazol-5-yl]pyrimidin-2-yl]amino]benzenesulfonamide]",ZIKV-117 expression compared to no compound group,BALB/c mice,higher total expression than no compound group but not statistically significant
same,IFN-beta mediated NF-κB induction relative to cells transfected with NP-35,NF-κB [3],slight increase in IFN-beta mediated NF-κB induction
"COc1ccc(F)cc1-c1cc(NC(=O)[C@@H]2CCCNC2)ncc1Cl [CDK-IN-2, (3R)-N-[5-chloro-4-(5-fluoro-2-methoxyphenyl)pyridin-2-yl]piperidine-3-carboxamide]",IFIT2 induction,IFIT2 [1],significant dose-dependent reduction in IFIT2 induction
same,fold induction at 50 µM,A549-Dual cells [4],157
same,fold induction at 50 µM,NF-κB [5],0.28
same,% viability,A549-Dual cells [6],23%
same,fold induction at 50 µM,IFIT2 [7],1.06
same,IFN-beta mediated NF-κB induction relative to cells transfected with NP-35,NF-κB [3],slight increase in IFN-beta mediated NF-κB induction
"C[C@@H](Oc1ccc2[nH]nc(/C=C/c3cnn(CCO)c3)c2c1)c1c(Cl)cncc1Cl [LY2874455, 2-[4-[(E)-2-[5-[(1R)-1-(3,5-dichloropyridin-4-yl)ethoxy]-1H-indazol-3-yl]ethenyl]pyrazol-1-yl]ethanol]",fold induction at 50 µM,A549-Dual cells [4],150
same,fold induction at 50 µM,NF-κB [5],0.3
same,% viability,A549-Dual cells [6],58%
same,fold induction at 50 µM,IFIT2 [7],0.09
"CCc1cnn2c(NCc3ccc[n+]([O-])c3)cc(N3CCCC[C@H]3CCO)nc12 [Dinaciclib, 2-[(2S)-1-[3-ethyl-7-[(1-oxidopyridin-1-ium-3-yl)methylamino]pyrazolo[1,5-a]pyrimidin-5-yl]piperidin-2-yl]ethanol]",ZIKV-117 expression compared to positive control (anti-IFNAR-1),BALB/c mice; Dinaciclib 5 mg/kg IV,more rapid and higher magnitude expression
same,ZIKV-117 expression compared to no compound group,BALB/c mice,significantly enhanced ZIKV-117 expression
same,IFIT2 induction,IFIT2 [1],significant dose-dependent reduction in IFIT2 induction
same,nLuc expression relative to NP-35/repRNA-nLuc without Dinaciclib,A549-Dual cells [8],significantly enhanced nLuc expression
